Target: His-Tagged hOGA (human O-GlcNAcase) (Homo sapiens (Human), UniProt O60502)
Assay: Human O-GlcNAcase enzyme inhibition assay (Example B01)
Type: biochemical
Details: not given

His-Tagged hOGA (human O-GlcNAcase), sequence (O60502 whole entry): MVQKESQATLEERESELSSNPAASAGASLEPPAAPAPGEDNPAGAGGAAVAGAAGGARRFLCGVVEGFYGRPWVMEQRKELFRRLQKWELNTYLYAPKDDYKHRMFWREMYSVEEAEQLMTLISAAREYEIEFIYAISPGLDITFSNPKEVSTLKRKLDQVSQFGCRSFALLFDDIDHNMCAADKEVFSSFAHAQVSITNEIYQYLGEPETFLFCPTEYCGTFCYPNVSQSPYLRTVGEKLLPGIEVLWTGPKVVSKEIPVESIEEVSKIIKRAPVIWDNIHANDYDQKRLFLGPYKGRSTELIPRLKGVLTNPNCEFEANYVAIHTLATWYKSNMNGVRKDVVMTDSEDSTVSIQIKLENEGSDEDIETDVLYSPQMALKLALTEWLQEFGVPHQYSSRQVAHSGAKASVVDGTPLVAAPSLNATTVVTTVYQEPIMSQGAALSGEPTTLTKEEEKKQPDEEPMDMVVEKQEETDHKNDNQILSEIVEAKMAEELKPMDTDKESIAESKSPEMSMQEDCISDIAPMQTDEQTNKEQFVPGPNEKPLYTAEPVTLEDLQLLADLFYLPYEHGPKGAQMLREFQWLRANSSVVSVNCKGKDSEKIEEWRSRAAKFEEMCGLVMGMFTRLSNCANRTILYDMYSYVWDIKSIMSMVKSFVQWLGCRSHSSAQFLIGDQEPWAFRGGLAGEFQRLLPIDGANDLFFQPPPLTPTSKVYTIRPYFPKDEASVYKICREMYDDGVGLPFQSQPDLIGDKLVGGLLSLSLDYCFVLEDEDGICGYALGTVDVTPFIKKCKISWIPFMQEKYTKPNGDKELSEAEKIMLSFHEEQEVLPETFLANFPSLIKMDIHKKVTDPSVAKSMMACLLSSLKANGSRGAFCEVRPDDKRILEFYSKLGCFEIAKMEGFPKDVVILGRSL

Compound	OGA inhibitor activity, in words
CC(=O)Nc1nnc(N2CCN(C(C)c3ccc4c(c3)OCC4)CC2)s1 (racemic) [Example 128]	very potent OGA inhibitors
Cc1ncc(N2CCN(C(C)c3ccc4c(c3)OCO4)CC2)s1 (racemic) [Example 37, 5-(4-(1-(Benzordiri,31dioxol-5-yl)ethyl)piperazin-1-yl)-2-methylthiazole]	very potent OGA inhibitors
CC(=O)Nc1nnc(N2CCN(C(C)c3ccc4scnc4c3)CC2)s1 (racemic) [Example 114]	very potent OGA inhibitors
CC(=O)Nc1cnc(N2CCN(C(C)c3ccc4scnc4c3)CC2)nc1 (racemic) [Example 116, N-(2-(4-(1-(benzord1thiazol-5-yl)ethyl)piperazin-1-yl)pyrimidin-5-yl)acetamide]	very potent OGA inhibitors
CNC(=O)c1cnc(N2CCN([C@@H](C)c3ccc4c(c3)OCO4)CC2)nc1 [Example 134, (S) 2-(4-(1-(benzordiri,31dioxol-5-yl)ethyl)piperazin-1-yl)-N-methylpyrimidine-5-carboxamide]	very potent OGA inhibitors
C[C@@H](c1ccc2c(c1)OCCO2)N1CCN(c2ncc(C(=O)N3CCN(C)CC3)s2)CC1 (single isomer, unassigned) [Example 75]	very potent OGA inhibitors
CC(c1ccc2c(c1)OCO2)N1CCN(c2ncc(CO)cn2)CC1 (racemic) [Example 52, (2-(4-(1-(benzordiri,31 dioxol-5-yl)ethyl)piperazin-1-yl)pyrimidin-5-yl)methanol]	very potent OGA inhibitors
CC(c1ccc2c(c1)OCO2)N1CCN(c2ncc(C(N)=O)s2)CC1 (racemic) [Example 48, 2-(4-(1-(Benzord1(1,3)dioxol-5-yl)ethyl)piperazin-1-yl)thiazole-5-carboxamide]	very potent OGA inhibitors
C[C@@H](c1ccc2c(c1)OCO2)N1CCN(c2ncc(F)cn2)CC1 [Example 173, (S)-2-(4-(1-(benzofdin,31dioxol-5-yl)ethyl)piperazin-1-yl)-5-fluoropyrimidine]	very potent OGA inhibitors
C[C@@H](c1ccc2c(c1)OCO2)N1CCN(c2nnc(N)s2)CC1 [Example 132, (S)-5-(4-(1-(benzordiri,31dioxol-5-yl)ethyl)piperazin-1-yl)-1,3,4-thiadiazol-2-amine]	very potent OGA inhibitors
C[C@@H](c1ccc2c(c1)OCO2)N1CCN(c2ncc(C3(O)CCCCC3)cn2)CC1 [Example 180, (S)-1-(2-(4-(1-(benzo[dl][1,31dioxol-5-yl)ethyl)piperazin-1-yl)pyrimidin-5-yl)cyclohexan-1-ol]	very potent OGA inhibitors
CNC(=O)c1csc(N2CCN([C@@H](C)c3ccc4c(c3)OCO4)CC2)n1 (single isomer, unassigned) [Example 56, (/?)-2-(4-(1-(Benzordiri,31dioxol-5-yl)ethyl)piperazin-1-yl)-N-methylthiazole^4-carboxamide or ^S)-2-(4-(1-(benzordiri,31dioxol-5-yl)ethyl)piperazin-1-yl)-N-methylthiazole^4-carboxamide]	very potent OGA inhibitors
CC(=O)Nc1cnc(N2CCN(C(C)c3ccc4c(c3)OCO4)CC2)nc1 (racemic) [Example 72, N-(2-(4-(1-(benzordlH,31dioxol-5-yl)ethyl)piperazin-1-yl)pyrimidin-5-yl)acetamide]	very potent OGA inhibitors
C[C@@H](c1ccc2c(c1)OCO2)N1CCN(c2ncc(C3(O)CCCC3)cn2)CC1 [Example 181, (S)-1-(2-(4-(1-(benzofdlH,31dioxol-5-yl)ethyl)piperazin-1-yl)pyrimidin-5-yl)cyclopentan-1-ol]	very potent OGA inhibitors
CC(=O)Nc1cnc(N2CCN(C(C)c3ccc4c(c3)OCC4)CC2)nc1 (racemic) [Example 129]	very potent OGA inhibitors
C[C@@H](c1ccc2c(c1)OCO2)N1CCN(c2ncc(C(C)(C)O)cn2)CC1 [Example 176, (S)-2-(2-(4-(1-(benzordiri,31dioxol-5-yl)ethyl)piperazin-1-yl)pyrimidin-5-yl)propan-2-ol]	very potent OGA inhibitors
C[C@@H](c1ccc2c(c1)OCO2)N1CCN(c2ncc(C(=O)N(C)C)cn2)CC1 [Example 137]	very potent OGA inhibitors
C[C@@H](c1ccc2c(c1)OCO2)N1CCN(c2nc3c(s2)CNCC3)CC1 [Example 182, (S)-2-(4-(1-(benzofdlM,31dioxol-5-yl)ethyl)piperazin-1-yl)-4,5,6,7-tetrahydrothiazoloi5,4-c1pyridine]	very potent OGA inhibitors
C[C@@H](c1ccc2c(c1)OCCO2)N1CCN(c2ncccn2)CC1 (single isomer, unassigned) [Example 34, (R)-2-(4-(1-(2,3-Dihydrobenzorbiri,41dioxin-6-yl)ethyl)piperazin-1-yl)pyrimidine or (S)-2-(4-(1-(2,3-Dihydrobenzorbiri^1dioxin-6-yl)ethyl)piperazin-1-yl)pyrimidine]	very potent OGA inhibitors

Same assay, conditions: OGA IC50 (M), OGA enzyme inhibition assay; activity range classes

Compound	IC50 [M]
C[C@@H](c1ccc2c(c1)OCCO2)N1CCN(c2ncc(C(=O)N(C)C)s2)CC1 (single isomer, unassigned) [Example 63]	1e-06 to 1e-05
COc1cc(C(C)N2CCN(c3nnc(NC(C)=O)s3)CC2)ccc1Cl (racemic) [Example 88]	1e-06 to 1e-05
CNC(=O)c1cnc(N2CCN([C@@H](C)c3ccc4c(c3)OCO4)CC2)s1 (single isomer, unassigned) [Example 65]	1e-06 to 1e-05
C[C@@H](c1ccc2c(c1)OCCO2)N1CCN(c2ncc(C(=O)N3CCN(C)CC3)s2)CC1 (single isomer, unassigned) [Example 75]	< 5e-08
Cc1csc(N2CCN([C@H](C)c3ccc4c(c3)OCO4)CC2)n1 (single isomer, unassigned) [Example 15, (R)-2-(4-(1-(benzordiri,31dioxol-5-yl)ethyl)piperazin-1-yl)-4-methylthiazole or (S)-2-(4-(1-(benzordiri,31 dioxol-5-yl)ethyl)piperazin-1-yl)-4-methylthiazole]	5e-08 to 2e-07
C[C@H](c1ccc2nccnc2c1)N1CCN(c2ncc(C(F)(F)F)cn2)CC1 (single isomer, unassigned) [Example 104, (S)-6-(1-(4-(5-(trifluoromethyl)pyrimidin-2-yl)piperazin-1-yl)ethyl)quinoxaline or (R)-6-(1-(4-(5-(trifluoromethyl)pyrimidin-2-yl)piperazin-1-yl)ethyl)quinoxaline]	5e-08 to 2e-07
C[C@@H](c1ccc2c(c1)OCCO2)N1CCN(c2ncc(C(=O)N(C)C)s2)CC1 (single isomer, unassigned) [Example 64]	< 5e-08
C[C@@H](c1ccc2c(c1)OCCO2)N1CCN(c2ncc(C(=O)N3CCN(C)CC3)s2)CC1 (single isomer, unassigned) [Example 74]	1e-06 to 1e-05
CCNC(=O)c1cnc(N2CCN([C@@H](C)c3ccc4c(c3)OCO4)CC2)s1 (single isomer, unassigned) [Example 59]	1e-06 to 1e-05
CC(=O)Nc1cnc(N2CCN([C@H](C)c3ccc4c(c3)OCO4)CC2)nc1 (single isomer, unassigned) [Example 77]	1e-06 to 1e-05
CC(=O)Nc1cnc(N2CCN(C(C)c3ccc4cccnc4c3)CC2)nc1 (racemic) [Example 120, N-(2-(4-(1-(quinolin-7-yl)ethyl)piperazin-1-yl)pyrimidin-5-yl)acetamide]	2e-07 to 1e-06
CCNC(=O)c1cnc(N2CCN([C@@H](C)c3ccc4c(c3)OCCO4)CC2)s1 (single isomer, unassigned) [Example 62, (S)-2-(4-(1-(2,3-dihydrobenzorbiri,41dioxin-6-yl)ethyl)piperazin-1-yl)-N-ethylthiazole-5-carboxamide or (R)-2-(4-(1-(2,3-dihydrobenzorblH,41dioxin-6-yl)ethyl)piperazin-1-yl)-N-ethylthiazole-5-carboxamide]	5e-08 to 2e-07
CNC(=O)c1cnc(N2CCN([C@@H](C)c3ccc4c(c3)OCO4)CC2)s1 (single isomer, unassigned) [Example 66]	< 5e-08

Same assay, conditions: OGA enzyme inhibition assay; activity range classes; read-out: OGA IC50

Compound	IC50 [M]
CNC(=O)c1csc(N2CCN([C@@H](C)c3ccc4c(c3)OCCO4)CC2)n1 (single isomer, unassigned) [Example 57, (R)-2-(4-(1-(2,3-dihydrobenzorbin,41dioxin-6-yl)ethyl)piperazin-1-yl)-N-methylthiazole-4-carboxamide or (S)-2-(4-(1-(2,3-dihydrobenzorbiri,41dioxin-6-yl)ethyl)piperazin-1-yl)-N-methylthiazole-4-carboxamide]	< 5e-08
CC(c1ccc2c(c1)OCO2)N1CCN(c2nc(CN)cs2)CC1 (stereo not shown) [Example 84, (2-(4-(1-(benzordin,31 dioxol-5-yl)ethyl)piperazin-1-yl)thiazol-4-yl)methanamine]	5e-08 to 2e-07
CNC(=O)c1csc(N2CCN([C@@H](C)c3ccc4c(c3)OCO4)CC2)n1 (single isomer, unassigned) [Example 56, (/?)-2-(4-(1-(Benzordiri,31dioxol-5-yl)ethyl)piperazin-1-yl)-N-methylthiazole^4-carboxamide or ^S)-2-(4-(1-(benzordiri,31dioxol-5-yl)ethyl)piperazin-1-yl)-N-methylthiazole^4-carboxamide]	< 5e-08
CC(=O)NCc1csc(N2CCN(C(C)c3ccc4c(c3)OCO4)CC2)n1 (stereo not shown) [Example 85, N-((2-(4-(1-(benzordiri,31dioxol-5-yl)ethyl)piperazin-1-yl)thiazol-4-yl)methyl)acetamide]	< 5e-08
C[C@@H](c1ccc2c(c1)OCO2)N1CCN(c2nc3c(s2)CN(C)CC3)CC1 [Example 194, (S)-2-(4-(1-(benzordiri,31dioxol-5-yl)ethyl)piperazin-1-yl)-5-methyl-4,5,6,7-tetrahydrothiazoloi5,4-c1pyridine]	< 5e-08
C[C@H](O)c1cnc(N2CCN([C@@H](C)c3ccc4c(c3)OCO4)CC2)nc1 (single isomer, unassigned) [Example 198]	< 5e-08
C[C@@H](c1ccc2c(c1)OCCO2)N1CCN(c2ncc(C(=O)N(C)CCN(C)C)s2)CC1 (single isomer, unassigned) [Example 71, (R)-2-(4-(1-(2,3-Dihydrobenzorb1H,41dioxin-6-yl)ethyl)piperazin-1-yl)-N-(2-(dimethylamino)ethyl)-N-methylthiazole-5-carboxamide or (S)-2-(4-(1-(2,3-dihydrobenzorbiri^1dioxin-6-yl)ethyl)piperazin-1-yl)-N-(2-(dimethylamino)ethyl)-N-methylthiazole-5-carboxamide]	< 5e-08
C[C@@H](c1ccc2c(c1)OCCO2)N1CCN(c2ncccn2)CC1 (single isomer, unassigned) [Example 34, (R)-2-(4-(1-(2,3-Dihydrobenzorbiri,41dioxin-6-yl)ethyl)piperazin-1-yl)pyrimidine or (S)-2-(4-(1-(2,3-Dihydrobenzorbiri^1dioxin-6-yl)ethyl)piperazin-1-yl)pyrimidine]	< 5e-08

Source: US11046712B2, “Glycosidase inhibitors” (Asceneuron SA, priority 2014, dated 2021)
